Laboratory results reported in US20190161480A1, “Chemical Compounds” (GLAXOSMITHKLINE INTELLECTUAL PROPERTY DEVELOPMENT LIMITED, priority 2016, published 2019).
Like-named read-outs stand apart in the source and are kept apart here.

Legend:
PI3Kδ [1] = target: T1, PI3Kδ (Homo sapiens, UniProt O00329); assay: PI3K HTRF assay, PI3K-delta; assay type: biochemical; settings: read-out: pIC50 PI3Kδ (converted); also: 80 µM ATP
Method: (§1) The binding of compounds to PI3K-alpha/beta/delta/gamma is determined by homogeneous time resolved fluorescence (HTRF) assays as follows;
(§2) Briefly, solid compound is dissolved in 100% DMSO at a concentration of 2 mM. Dilutions are prepared in 100% DMSO using a 1 in 4 serial step dilution. The dilutions are transferred to black low volume Greiner assay plates ensuring that the DMSO concentration is constant across the plate at 1% (0.1 μL/well).
(§3) PI3K Reaction Buffer (contains 50 mM HEPES pH 7.0 (NaOH), 150 mM NaCl, 10 mM MgCl2, 2.3 mM sodium cholate, […] CHAPS made up in milliQ water). Fresh DTT is added at a final concentration of 1 mM on the day of use.
(§4) Enzyme solutions: 1× PI3K Assay Buffer containing: • 550 pM PI3K-Alpha enzyme (275 pM final assay concentration) • 800 pM PI3K-Beta enzyme (400 pM final assay concentration) • 3 nM PI3K-Delta enzyme (1.5 nM final assay concentration) • 10 nM PI3K-Gamma enzyme (5 nM final assay concentration)
(§5) These concentrations are optimal to achieve a signal:background of between 1.5-4.5. The enzyme solution is added to columns 1-24 (3 μL/well) and plates are incubated for 15 minutes at room temperature.
(§6) Substrate solution: 1× PI3K Assay Buffer containing: • PI3K-Alpha: 500 μM ATP, 20 μM PIP2 and 120 nM biotin-PIP3.
(§7) This is added to all wells and plates are incubated for 1 hour at room temperature.
(§8) Detection solution: PI3K Detection Buffer (contains 50 mM HEPES pH 7.0 (HCl), 150 mM NaCl, 2.3 mM sodium cholate, 10 μM CHAPS, 240 mM potassium fluoride) containing 2 mM DTT (2× final assay concentration), 90 nM GRP-1 PH domain, 300 nM Streptavidin-APC and 24 nM Europium-anti-GST (6× final assay concentrations).
(§9) This is mixed left at room temperature (protected from light).
(§10) STOP solution: PI3K STOP Buffer (contains 50 mM HEPES pH 7.0 (HCl), 150 mM NaCl, 2.3 mM sodium cholate, 10 μM CHAPS, 150 mM EDTA).
(§11) Detection solution is diluted 1:1 with STOP solution and added to all wells (3 μL/well). Plates are covered and incubated on the bench for 45-60 minutes.
(§12) Plates are read on a PerkinElmer Envision, measuring TR-FRET between the complex formed between the GST-tagged PH domain and biotinylated PIP3 which both recruit fluorophores (Europium-labelled anti-GST & Strep-APC respectively). In the […] of an inhibitor, this complex is disrupted by the competitive action of non-biotinylated PIP3 (formed in the assay by the phosphorylation of PIP2 by the kinase & ATP). From this, the ratio of acceptor/donor was calculated (λex=317 nm, Δem donor=615 nm, Δem acceptor=665 nm) and used for data analysis.

PI3Kγ = PI3Kγ (Homo sapiens, UniProt P48736); assay: PI3K HTRF assay, PI3K-gamma; assay type: biochemical; settings: read-out: pIC50 PI3Kγ (converted); also: 15 µM ATP
Chain of PI3Kγ (P48736 whole entry, species assumed): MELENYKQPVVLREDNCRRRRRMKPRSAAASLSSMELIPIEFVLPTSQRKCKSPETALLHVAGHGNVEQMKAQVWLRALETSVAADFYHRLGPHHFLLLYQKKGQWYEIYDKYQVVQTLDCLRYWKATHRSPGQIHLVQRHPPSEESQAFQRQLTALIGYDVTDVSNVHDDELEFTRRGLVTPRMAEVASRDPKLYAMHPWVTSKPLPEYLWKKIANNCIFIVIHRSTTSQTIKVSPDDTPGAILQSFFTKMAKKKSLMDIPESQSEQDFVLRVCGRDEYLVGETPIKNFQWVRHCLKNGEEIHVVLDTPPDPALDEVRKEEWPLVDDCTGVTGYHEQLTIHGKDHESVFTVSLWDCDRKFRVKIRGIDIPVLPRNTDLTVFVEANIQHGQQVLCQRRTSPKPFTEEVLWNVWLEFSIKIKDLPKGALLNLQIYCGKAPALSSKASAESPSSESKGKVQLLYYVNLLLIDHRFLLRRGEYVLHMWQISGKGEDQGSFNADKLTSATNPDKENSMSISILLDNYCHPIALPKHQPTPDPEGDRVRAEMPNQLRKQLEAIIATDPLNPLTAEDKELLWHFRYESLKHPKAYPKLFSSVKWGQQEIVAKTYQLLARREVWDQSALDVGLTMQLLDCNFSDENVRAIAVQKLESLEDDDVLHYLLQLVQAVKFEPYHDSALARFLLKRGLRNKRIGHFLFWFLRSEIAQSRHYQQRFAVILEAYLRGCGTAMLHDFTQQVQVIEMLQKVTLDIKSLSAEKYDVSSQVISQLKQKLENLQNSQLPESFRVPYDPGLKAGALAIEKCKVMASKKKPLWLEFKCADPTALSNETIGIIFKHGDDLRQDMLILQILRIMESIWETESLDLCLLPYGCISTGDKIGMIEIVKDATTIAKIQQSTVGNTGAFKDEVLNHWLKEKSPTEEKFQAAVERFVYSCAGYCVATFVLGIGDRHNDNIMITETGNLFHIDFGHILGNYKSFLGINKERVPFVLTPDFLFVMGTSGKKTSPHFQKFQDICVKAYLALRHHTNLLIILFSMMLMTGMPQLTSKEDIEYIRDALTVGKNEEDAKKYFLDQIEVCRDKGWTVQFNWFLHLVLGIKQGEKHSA
Method: as §1, §2, §3, §4, §5, §6, §7, §8, §9, §10, §11, §12

PI3Kα = PI3Kα (Homo sapiens, UniProt P42336); assay: PI3K HTRF assay, PI3K-alpha; assay type: biochemical; settings: read-out: pIC50 PI3Kα (converted); also: 250 µM ATP
Chain of PI3Kα (P42336 whole entry, species assumed): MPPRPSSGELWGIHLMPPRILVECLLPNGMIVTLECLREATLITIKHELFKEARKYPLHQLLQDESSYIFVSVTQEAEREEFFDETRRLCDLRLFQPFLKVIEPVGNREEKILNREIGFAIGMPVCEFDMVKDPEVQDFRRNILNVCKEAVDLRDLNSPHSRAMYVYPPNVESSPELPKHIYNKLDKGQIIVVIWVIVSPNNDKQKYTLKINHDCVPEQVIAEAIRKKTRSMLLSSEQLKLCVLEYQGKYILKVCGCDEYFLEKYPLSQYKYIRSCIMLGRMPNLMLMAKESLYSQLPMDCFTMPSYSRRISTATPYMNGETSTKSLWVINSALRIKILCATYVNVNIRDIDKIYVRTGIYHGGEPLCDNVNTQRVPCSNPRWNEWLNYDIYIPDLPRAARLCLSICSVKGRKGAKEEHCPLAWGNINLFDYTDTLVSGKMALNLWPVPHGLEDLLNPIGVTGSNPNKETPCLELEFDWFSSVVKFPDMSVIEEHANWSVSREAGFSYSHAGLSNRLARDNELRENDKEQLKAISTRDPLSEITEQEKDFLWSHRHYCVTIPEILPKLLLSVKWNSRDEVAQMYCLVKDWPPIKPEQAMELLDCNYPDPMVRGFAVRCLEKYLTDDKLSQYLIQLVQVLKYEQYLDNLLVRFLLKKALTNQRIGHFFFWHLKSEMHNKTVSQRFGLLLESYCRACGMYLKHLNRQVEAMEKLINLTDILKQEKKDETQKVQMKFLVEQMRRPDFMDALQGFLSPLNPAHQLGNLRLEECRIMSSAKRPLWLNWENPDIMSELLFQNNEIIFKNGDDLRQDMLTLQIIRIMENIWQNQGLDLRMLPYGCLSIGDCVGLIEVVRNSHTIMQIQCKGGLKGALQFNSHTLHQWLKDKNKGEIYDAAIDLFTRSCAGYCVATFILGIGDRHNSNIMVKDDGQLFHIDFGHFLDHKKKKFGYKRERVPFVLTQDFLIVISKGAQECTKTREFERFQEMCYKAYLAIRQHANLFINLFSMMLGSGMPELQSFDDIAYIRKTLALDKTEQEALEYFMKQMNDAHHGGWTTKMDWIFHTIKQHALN
Chain of PI3Kα (P27986 whole entry partner, species assumed): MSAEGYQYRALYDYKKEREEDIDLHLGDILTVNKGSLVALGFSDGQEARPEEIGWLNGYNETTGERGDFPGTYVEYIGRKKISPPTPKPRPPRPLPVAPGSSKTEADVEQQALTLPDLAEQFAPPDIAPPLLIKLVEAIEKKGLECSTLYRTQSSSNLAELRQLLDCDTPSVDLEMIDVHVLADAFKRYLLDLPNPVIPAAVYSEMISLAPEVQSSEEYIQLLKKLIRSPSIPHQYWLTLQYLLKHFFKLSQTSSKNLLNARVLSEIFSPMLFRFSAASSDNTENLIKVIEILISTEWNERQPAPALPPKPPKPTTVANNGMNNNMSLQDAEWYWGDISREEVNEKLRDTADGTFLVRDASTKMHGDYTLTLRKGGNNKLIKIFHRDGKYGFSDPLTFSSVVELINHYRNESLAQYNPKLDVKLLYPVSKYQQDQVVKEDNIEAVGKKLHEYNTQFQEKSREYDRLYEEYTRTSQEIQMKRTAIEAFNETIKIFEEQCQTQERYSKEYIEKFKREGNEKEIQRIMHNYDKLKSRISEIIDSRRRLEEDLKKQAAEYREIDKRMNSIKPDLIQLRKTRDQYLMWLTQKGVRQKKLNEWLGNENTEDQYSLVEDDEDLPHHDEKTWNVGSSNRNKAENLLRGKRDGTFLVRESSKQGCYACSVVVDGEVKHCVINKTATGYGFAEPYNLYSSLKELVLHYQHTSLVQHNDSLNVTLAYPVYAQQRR
Method: as §1, §2, §3, §4, §5, §6, §7, §8, §9, §10, §11, §12

PI3Kβ = PI3Kβ (Homo sapiens, UniProt P42338); assay: PI3K HTRF assay, PI3K-beta; assay type: biochemical; settings: read-out: pIC50 PI3Kβ (converted); also: 400 µM ATP
Chain of PI3Kβ (P42338 whole entry, species assumed): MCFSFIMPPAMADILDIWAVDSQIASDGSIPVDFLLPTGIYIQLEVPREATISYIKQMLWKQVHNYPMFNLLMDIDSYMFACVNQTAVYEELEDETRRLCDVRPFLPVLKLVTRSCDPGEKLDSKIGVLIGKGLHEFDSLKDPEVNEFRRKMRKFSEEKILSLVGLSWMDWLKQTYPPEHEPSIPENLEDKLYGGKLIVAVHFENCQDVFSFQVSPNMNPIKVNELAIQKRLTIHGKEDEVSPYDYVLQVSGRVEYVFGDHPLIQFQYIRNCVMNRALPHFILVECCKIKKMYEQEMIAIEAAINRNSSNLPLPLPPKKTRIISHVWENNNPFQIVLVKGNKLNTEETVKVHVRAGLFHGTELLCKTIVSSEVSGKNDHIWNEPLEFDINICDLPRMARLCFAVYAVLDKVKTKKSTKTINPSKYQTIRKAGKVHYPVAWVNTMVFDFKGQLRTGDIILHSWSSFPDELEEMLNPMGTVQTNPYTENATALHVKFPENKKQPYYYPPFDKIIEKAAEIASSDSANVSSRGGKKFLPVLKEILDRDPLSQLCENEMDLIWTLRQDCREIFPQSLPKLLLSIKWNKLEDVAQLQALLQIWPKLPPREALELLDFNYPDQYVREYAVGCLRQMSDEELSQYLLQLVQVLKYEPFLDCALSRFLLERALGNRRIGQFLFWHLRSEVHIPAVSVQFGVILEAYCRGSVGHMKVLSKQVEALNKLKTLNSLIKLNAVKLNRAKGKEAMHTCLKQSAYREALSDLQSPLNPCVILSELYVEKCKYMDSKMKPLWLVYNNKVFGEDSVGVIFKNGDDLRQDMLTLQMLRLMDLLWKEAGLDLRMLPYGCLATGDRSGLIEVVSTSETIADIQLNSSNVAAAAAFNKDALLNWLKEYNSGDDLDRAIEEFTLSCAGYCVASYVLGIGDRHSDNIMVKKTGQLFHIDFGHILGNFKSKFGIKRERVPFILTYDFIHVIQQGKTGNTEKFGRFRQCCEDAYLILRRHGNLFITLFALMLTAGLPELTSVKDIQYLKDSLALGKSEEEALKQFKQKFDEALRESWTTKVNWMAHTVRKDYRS
Chain of PI3Kβ (P27986 whole entry partner, species assumed): as the sequence (P27986 whole entry partner, species assumed) above
Method: as §1, §2, §3, §4, §5, §6, §7, §8, §9, §10, §11, §12

Class I PI3-kinases = settings: read-out: IC50 against each of the Class I PI3-kinases, cited from earlier work
[2] = tested on: amphetamine-induced psychosis; settings: Law et al. 2012; cited from earlier work
PI3Kδ [3] = target: T1, PI3Kδ; assay: PI3Kδ jump dilution experiment; assay type: biochemical; settings: 15 min incubation, 100-fold dilution, read for 30 minutes
Method: Irreversibility of the PI3Kδ-Inhibitor complex, and reversibility of the non-covalent controls, was determined by jump-dilution assay as follows:
PI3Kδ enzyme was made up to a 100× assay concentration (final assay concentration=6 nM) in buffer solution (contains 50 mM HEPES pH 7.0 (NaOH), 150 mM NaCl, 10 mM MgCl2, 2.3 mM sodium cholate, 10 μM CHAPS made up in milliQ water).
100× enzyme solution was added to compound wells (20 μL/well), and incubated for 15 mins, after which point the assay was diluted 100-fold with commercially available ADP QUEST substrate solution, available from DiscoverX (calatog number: 90-0071), (3200 μL DiscoverX Reagent A, 6400 μL DiscoverX Reagent B, 1 mM ATP and 40 μM PIP2). Production of fluorescence signal was then measured immediately using a Tecan Safire II plate reader at 30 second intervals for 30 minutes (λex=544 nm, λem=590 nm).

CK2 protein kinase = settings: literature; cited from earlier work
PI3Kδ [4] = target: T1, PI3Kδ; assay: Protein mass spectrometry: covalent adduct assessment and competition experiment; assay type: binding; settings: 10:1 inhibitor:protein, incubated overnight
Method: Compounds were incubated with 1 μM protein in a 10:1 inhibitor:protein ratio in buffer containing 50 mM HEPES, pH 7.0 (NaOH), 150 mM NaCl, 10 mM MgCl2, 2.3 mM cholate, 10 μM CHAPS. After the desired time, the assays were quenched with a 10% formic acid solution, and analysed by LCMS using an Agilent 6224 TOF LC/MS equipped with Agilent 1200 Series autosampler. Analytes were separated on a Polymer Labs (Agilent) PLRP-S column (50 mm×1 mm internal diameter, 5 μm particle size). LC conditions were 0.5 mL·min^−1 flow rate, 70° C., 10 μL injection volume. Gradient elution with (A) water containing 0.2% (v/v) formic acid and (B) acetonitrile containing 0.2% (v/v) formic acid. Gradient conditions were initially 10% B, increasing to 30% after 0.5 min, and then linearly to 80% B over 4.5 min, prior to a 1.2 min flush with 100% B and then a 1.9 minute equilibration with 10% B prior to the next injection. Mass spectra were then deconvoluted using Agilent MassHunter Qualitative Analysis version B.06.00 over the mass range 70-170 kDa to obtain the intact protein mass.
A potent reversible ATP competitive inhibitor was incubated with 1 μM protein in a 10:1 inhibitor:protein ratio in buffer containing 50 mM HEPES, pH 7.0 (NaOH), 150 mM NaCl, 10 mM MgCl2, 2.3 mM cholate, 10 μM CHAPS at room temperature. […] The assay was quenched at 5 min and analysed using the procedure detailed above.

T1 sequence (O00329 whole entry): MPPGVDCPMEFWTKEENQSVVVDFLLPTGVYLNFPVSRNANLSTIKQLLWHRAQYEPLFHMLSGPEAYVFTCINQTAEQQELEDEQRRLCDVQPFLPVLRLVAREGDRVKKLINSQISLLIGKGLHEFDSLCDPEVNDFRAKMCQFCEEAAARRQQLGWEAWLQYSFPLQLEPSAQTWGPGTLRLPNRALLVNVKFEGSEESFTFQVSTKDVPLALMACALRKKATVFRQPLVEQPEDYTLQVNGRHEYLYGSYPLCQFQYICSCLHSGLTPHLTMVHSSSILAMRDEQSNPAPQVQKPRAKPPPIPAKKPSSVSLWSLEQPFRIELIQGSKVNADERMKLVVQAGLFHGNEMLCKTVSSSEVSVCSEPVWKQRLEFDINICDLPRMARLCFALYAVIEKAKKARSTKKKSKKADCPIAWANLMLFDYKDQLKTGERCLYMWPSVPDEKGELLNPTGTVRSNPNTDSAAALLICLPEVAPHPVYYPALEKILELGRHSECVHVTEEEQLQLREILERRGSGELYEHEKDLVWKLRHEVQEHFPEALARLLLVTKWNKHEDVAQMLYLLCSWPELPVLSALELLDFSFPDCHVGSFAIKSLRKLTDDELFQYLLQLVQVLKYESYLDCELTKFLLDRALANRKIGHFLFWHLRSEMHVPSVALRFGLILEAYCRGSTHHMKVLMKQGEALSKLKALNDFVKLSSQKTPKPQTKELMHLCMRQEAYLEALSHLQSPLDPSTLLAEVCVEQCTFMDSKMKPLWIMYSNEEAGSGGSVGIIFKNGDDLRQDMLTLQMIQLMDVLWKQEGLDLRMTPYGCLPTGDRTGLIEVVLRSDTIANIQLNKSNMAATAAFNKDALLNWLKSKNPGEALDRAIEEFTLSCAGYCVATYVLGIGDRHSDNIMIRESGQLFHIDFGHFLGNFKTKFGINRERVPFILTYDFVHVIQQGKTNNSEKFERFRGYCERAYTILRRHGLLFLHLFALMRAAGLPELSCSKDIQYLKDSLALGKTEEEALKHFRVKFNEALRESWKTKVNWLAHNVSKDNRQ
T1 sequence (P27986 whole entry partner): as the sequence (P27986 whole entry partner, species assumed) above

IC50 (PI3Kδ [1]) [µM]	IC50 (PI3Kγ) [µM]	IC50 (PI3Kα) [µM]	IC50 (PI3Kβ) [µM]	Recovery of enzyme activity after jump dilution (PI3Kδ [3])	Covalent modification of PI3Kδ (protein mass spectrometry) (PI3Kδ [4])	Compound	IC50 (Class I PI3-kinases; literature) [µM]	Efficacy in mouse model of amphetamine-induced psychosis [2]	IC50 (Class I PI3-kinases; Fruman et al. 1998) [µM]	IC50 (CK2 protein kinase) [µM]
0.00501	3.16	0.0794	0.2	–	–	COc1ncc(-c2cc(-c3ncc(CN4CCN(C(C)C)CC4)o3)c3cn[nH]c3c2)cc1C(=O)Oc1ccccc1[N+](=O)[O-] [Example 3, 2-Nitrophenyl 5-(4-(5-((4-isopropylpiperazin-1-yl)methyl)oxazol-2-yl)-1H-indazol-6-yl)-2-methoxynicotinate]	–	–	–	–
–	–	–	–	–	–	COC[C@H]1OC(=O)c2coc3c2[C@@]1(C)C1=C(C3=O)[C@@H]2CCC(=O)[C@@]2(C)C[C@H]1OC(C)=O [Wortmannin]	0.001 to 0.01	–	–	–
0.316	20	15.8	> 31.6	–	–	COc1ncc(-c2cc(-c3ncc(CN4CCN(C(C)C)CC4)o3)c3cn[nH]c3c2)cc1C(=O)OCC(F)(F)F [Example 11, 2,2,2-Trifluoroethyl 5-(4-(5-((4-isopropylpiperazin-1-yl)methyl)oxazol-2-yl)-1H-indazol-6-yl)-2-methoxynicotinate]	–	–	–	–
–	–	–	–	–	–	Cc1ccccc1-n1c(Cn2cnc3c(N)ncnc32)nc2cccc(C)c2c1=O [IC87114]	–	remarkable efficacy	–	–
0.0501	10	15.8	12.6	–	–	COc1ccc(OC(=O)c2cc(-c3cc(-c4ncc(CN5CCN(C(C)C)CC5)o4)c4cn[nH]c4c3)cnc2OC)cc1 [Example 10, 4-Methoxyphenyl 5-(4-(5-((4-isopropylpiperazin-1-yl)methyl)oxazol-2-yl)-1H-indazol-6-yl)-2-methoxynicotinate]	–	–	–	–
0.00398	25.1	2	6.31	–	–	COc1ncc(-c2cc(-c3ncc(CN4CCN(C(C)C)CC4)o3)c3cn[nH]c3c2)cc1C(=O)Oc1ccc(C(F)(F)F)cc1 [Example 6, 4-(Trifluoromethyl)phenyl 5-(4-(5-((4-isopropylpiperazin-1-yl)methyl)oxazol-2-yl)-1H-indazol-6-yl)-2-methoxynicotinate]	–	–	–	–
0.00631	12.6	2.51	3.98	–	–	COc1ncc(-c2cc(-c3ncc(CN4CCN(C(C)C)CC4)o3)c3cn[nH]c3c2)cc1C(=O)Oc1ccccc1 [Example 8, Phenyl 5-(4-(5-((4-isopropylpiperazin-1-yl)methyl)oxazol-2-yl)-1H-indazol-6-yl)-2-methoxynicotinate]	–	–	–	–
0.0398	> 31.6	10	> 31.6	Recovery of enzyme activity was observed	–	COC(=O)c1cc(-c2cc(-c3ncc(CN4CCN(C(C)C)CC4)o3)c3cn[nH]c3c2)cnc1OC.O=CO [Example 1, Methyl 5-(4-(5-((4-isopropylpiperazin-1-yl)methyl)oxazol-2-yl)-1H-indazol-6-yl)-2-methoxynicotinate]	–	–	–	–
0.398	10	7.94	15.8	–	–	COc1ncc(-c2cc(-c3ncc(CN4CCN(C(C)C)CC4)o3)c3cn[nH]c3c2)cc1C(=O)Oc1ccc(C)cc1C [Example 9, 2,4-Dimethylphenyl 5-(4-(5-((4-isopropylpiperazin-1-yl)methyl)oxazol-2-yl)-1H-indazol-6-yl)-2-methoxynicotinate]	–	–	–	–
–	–	–	–	–	–	O=c1cc(N2CCOCC2)oc2c(-c3ccccc3)cccc12 [LY294002]	–	–	15 to 20	5 to 10
0.0126	15.8	12.6	20	Recovery of enzyme activity was observed	no modification	COc1ncc(-c2cc(-c3ncc(CN4CCN(C(C)C)CC4)o3)c3cn[nH]c3c2)cc1C(=O)O [Example 2, 5-(4-(5-((4-Isopropylpiperazin-1-yl)methyl)oxazol-2-yl)-1H-indazol-6-yl)-2-methoxynicotinic acid]	–	–	–	–
0.000631	1.58	0.00631	0.0631	–	–	COc1ncc(-c2cc(-c3ncc(CN4CCN(C(C)C)CC4)o3)c3cn[nH]c3c2)cc1C(=O)Oc1ccc([N+](=O)[O-])cc1 [Example 4, 4-Nitrophenyl 5-(4-(5-((4-isopropylpiperazin-1-yl)methyl)oxazol-2-yl)-1H-indazol-6-yl)-2-methoxynicotinate]	–	–	–	–
0.00631	7.94	1	2	–	–	COc1ncc(-c2cc(-c3ncc(CN4CCN(C(C)C)CC4)o3)c3cn[nH]c3c2)cc1C(=O)Oc1ccccc1C(F)(F)F [Example 5, 2-(Trifluoromethyl)phenyl 5-(4-(5-((4-isopropylpiperazin-1-yl)methyl)oxazol-2-yl)-1H-indazol-6-yl)-2-methoxynicotinate]	–	–	–	–
